The values that follow come from ChEMBL document CHEMBL1136799, “Design and synthesis of pyrrolidine-5,5'-trans-lactams (5-oxo-hexahydropyrrolo[3,2-b]pyrroles) as novel mechanism-based inhibitors of human cytomegalovirus protease. 4. Antiviral activity and plasma stability” (J Med Chem, 2003).

Bounds are passed on as bounds.

Experiment [1] deals with T1, Capsid scaffolding protein (Human cytomegalovirus (strain AD169) (HHV-5) (Human herpesvirus 5), UniProt P16753).
T1 sequence (P16753 whole entry): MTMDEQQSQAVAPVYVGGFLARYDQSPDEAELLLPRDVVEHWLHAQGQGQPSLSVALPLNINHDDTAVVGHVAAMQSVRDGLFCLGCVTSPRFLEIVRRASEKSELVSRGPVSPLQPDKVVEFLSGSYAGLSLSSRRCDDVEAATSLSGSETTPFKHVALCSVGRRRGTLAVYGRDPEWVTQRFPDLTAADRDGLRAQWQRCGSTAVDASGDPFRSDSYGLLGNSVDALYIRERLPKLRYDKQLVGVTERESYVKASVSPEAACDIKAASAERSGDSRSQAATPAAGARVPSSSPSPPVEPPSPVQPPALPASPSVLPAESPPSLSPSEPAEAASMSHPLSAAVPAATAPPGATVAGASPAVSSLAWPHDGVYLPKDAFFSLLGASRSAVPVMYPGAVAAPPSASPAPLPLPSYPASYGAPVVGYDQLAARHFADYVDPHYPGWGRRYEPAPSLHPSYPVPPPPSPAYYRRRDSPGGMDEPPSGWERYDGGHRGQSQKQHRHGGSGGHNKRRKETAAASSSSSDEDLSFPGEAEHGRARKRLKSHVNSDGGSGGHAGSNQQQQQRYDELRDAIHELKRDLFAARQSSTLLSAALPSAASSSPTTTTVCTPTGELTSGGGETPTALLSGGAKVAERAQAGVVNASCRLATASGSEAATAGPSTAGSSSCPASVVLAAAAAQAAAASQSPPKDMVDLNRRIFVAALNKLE
Description: Potency against human cytomegalovirus protease in HCMV pNA assay. More on the design: species or system Human herpesvirus 5 strain AD169.

For experiment [2], the target named is T1, Capsid scaffolding protein. The experiment in a line: Inhibition of human cytomegalovirus protease in HCMV pNA assay. On the set-up: species or system Human herpesvirus 5 strain AD169.
Another experiment relates to Human betaherpesvirus 5. Description: Concentration required to inhibit human cytomegalovirus HCMV-AD169 in antiviralplaque reduction assay. Format: functional, organism-based.
For a further experiment, the system named is Vero. Description: Growth inhibition of cytomegalovirus in Vero cells. Format: functional, Human betaherpesvirus 5.

`CCCOc1ccc(-c2ccc(NC(=O)N3CCC[C@H]3C(=O)N3CC[C@H]4[C@H]3[C@H](C)C(=O)N4C(=O)C3CC3)cc2)cc1` yielded a Ki in experiment [1] of 9 nM.

Turning to `C[C@@H]1C(=O)N(C(=O)C2CC2)[C@H]2CCN(C(=O)[C@@H]3CCCN3C(=O)Nc3cccc(Cl)c3)[C@H]12`, the IC50 in experiment [2] was 650 nM.

`Cc1c(C(=O)N2CCC[C@H]2C(=O)N2CC[C@H]3[C@H]2[C@H](C)C(=O)N3C(=O)C2CC2)sc2ccc(Cl)cc12` yielded a concentration for half-maximal inhibition (IC50) in experiment [2] of 190 nM. The molecule further displayed a Ki in experiment [1] of 2 nM.

With `C[C@@H]1C(=O)N(C(=O)C2CC2)[C@H]2CCN(C(=O)[C@@H]3CCCN3C(=O)c3ccc(-c4ccc(Cl)cc4)cc3)[C@H]12`, the IC50 in experiment [2] came out at 1400 nM.

In turn, `C[C@@H]1C(=O)N(C(=O)C2CC2)[C@H]2CCN(C(=O)[C@@H]3CCCN3C(=O)c3ccc(Cl)cc3)[C@H]12` showed a half-maximal inhibitory concentration (IC50) in experiment [2] of 1400 nM.

Take `COc1ccc2sc(N3C(=O)[C@@H](C)[C@@H]4[C@@H]3CCN4C(=O)[C@@H]3CCCN3C(=O)Nc3ccc(C(C)C)cc3)nc2c1`: the results for the IC50 (in the experiment with Human betaherpesvirus 5; in experiment [2]) were 2400 nM and 230 nM, respectively. For the same molecule, the CCID50 with Vero was >500 µM.

Take `COc1cccc2sc(N3C(=O)[C@@H](C)[C@@H]4[C@@H]3CCN4C(=O)[C@@H]3CCCN3C(=O)Nc3ccc(C(C)C)cc3)nc12`: the half-inhibitory concentration (IC50) with Human betaherpesvirus 5 turned out to be 5200 nM; in experiment [2], 240 nM. In addition, the CCID50 in the experiment on Vero was 89 µM.

In experiment [2], `CCCOc1ccc(S(=O)(=O)N2CCC[C@H]2C(=O)N2CC[C@H]3[C@H]2[C@H](C)C(=O)N3C(=O)C2CC2)cc1` registered an IC50 of 230 nM. For the same molecule, the inhibition constant Ki in experiment [1] amounted to 33 nM.

As for `C[C@@H]1C(=O)N(C(=O)C2CC2)[C@H]2CCN(C(=O)[C@@H]3CCCN3S(=O)(=O)c3ccc4ccccc4c3)[C@H]12`, the IC50 in experiment [2] is < 190 nM. The molecule further yielded a Ki in experiment [1] of 40 nM.

Regarding `C[C@@H]1C(=O)N(C(=O)C2CC2)[C@H]2CCN(C(=O)[C@@H]3CCCN3S(=O)(=O)c3ccc(-c4ccc(Cl)cc4)cc3)[C@H]12`, 840 nM corresponded to half-maximal inhibition in experiment [2] (IC50).

As to `C[C@@H]1C(=O)N(C(=O)C2CC2)[C@H]2CCN(C(=O)[C@@H]3CCCN3S(=O)(=O)c3cccc4cc(N(C)C)ccc34)[C@H]12`, the IC50 in experiment [2] amounted to 1100 nM.

`Nc1nc2c(ncn2COC(CO)CO)c(=O)[nH]1` [GANCICLOVIR] gave an IC50 with Human betaherpesvirus 5 of 720 nM. Moreover, in the experiment on Vero, the CCID50 is >500 µM.

The molecule `C[C@@H]1C(=O)N(C(=O)C2CC2)[C@H]2CCN(C(=O)[C@@H]3CCCN3C(=O)c3cccc4ccccc34)[C@H]12` had an IC50 in experiment [2] of 890 nM.

In turn, `C[C@@H]1C(=O)N(C(=O)C2CC2)[C@H]2CCN(C(=O)[C@@H]3CCCN3C(=O)Nc3ccc(C(F)(F)F)cc3)[C@H]12` had an IC50 in experiment [2] of 230 nM. The molecule also yielded a Ki in experiment [1] of 15 nM.

As for `CC(C)c1ccc(S(=O)(=O)N2CCC[C@H]2C(=O)N2CC[C@H]3[C@H]2[C@H](C)C(=O)N3C(=O)C2CC2)cc1`, in experiment [2], it took 460 nM to reach half-maximal inhibition (IC50). The Ki in experiment [1] was determined as 99 nM.

For `C[C@@H]1C(=O)N(C(=O)C2CC2)[C@H]2CCN(C(=O)[C@@H]3CCCN3S(=O)(=O)c3cccc4ccccc34)[C@H]12`, inhibition in experiment [2] was half-maximal at 370 nM (IC50). Also, in experiment [1], the affinity corresponds to a Ki of 60 nM.

The molecule `CCCOc1ccc(-c2ccc(C(=O)N3CCC[C@H]3C(=O)N3CC[C@H]4[C@H]3[C@H](C)C(=O)N4C(=O)C3CC3)cc2)cc1` had a Ki in experiment [1] of 79 nM.

Regarding `COc1ccc2nc(N3C(=O)[C@@H](C)[C@@H]4[C@@H]3CCN4C(=O)[C@@H]3CCCN3C(=O)Nc3ccc(C(C)C)cc3)sc2c1`, the values for the IC50 (with Human betaherpesvirus 5; in experiment [2]) were 3200 nM and 220 nM, respectively. Also, the affinity in experiment [1], expressed as Ki, was 43 nM. In the experiment on Vero, the CCID50 is >500 µM.

Molecule `CC(C)Oc1ccc(S(=O)(=O)N2CCC[C@H]2C(=O)N2CC[C@H]3[C@H]2[C@H](C)C(=O)N3C(=O)C2CC2)cc1` showed a concentration for half-maximal inhibition (IC50) in experiment [2] of 400 nM. In experiment [1], this molecule yielded an inhibitory constant (Ki) of 39 nM.

`CC(C)c1ccc(C(=O)N2CCC[C@H]2C(=O)N2CC[C@H]3[C@H]2[C@H](C)C(=O)N3C(=O)C2CC2)cc1` registered an IC50 in experiment [2] of 390 nM.

Molecule `C[C@@H]1C(=O)N(C(=O)C2CC2)[C@H]2CCN(C(=O)[C@@H]3CCCN3C(=O)Nc3cccc4ccccc34)[C@H]12` came in with a half-inhibitory concentration (IC50) in experiment [2] of 650 nM.

`CC(C)c1ccccc1NC(=O)N1CCC[C@H]1C(=O)N1CC[C@H]2[C@H]1[C@H](C)C(=O)N2C(=O)C1CC1` yielded a half-maximal inhibitory concentration (IC50) in experiment [2] of 470 nM.

Turning to `CC(C)c1ccc(NC(=O)N2CCC[C@H]2C(=O)N2CC[C@H]3[C@H]2[C@H](C)C(=O)N3c2nc3cc(Cl)ccc3s2)cc1`, the results for the IC50 (with Human betaherpesvirus 5; in experiment [2]) were 49000 nM and 460 nM, respectively. The CCID50 with Vero is 266 µM.

`C[C@@H]1C(=O)N(C(=O)C2CC2)[C@H]2CCN(C(=O)[C@@H]3CCCN3C(=O)Nc3ccccc3)[C@H]12` returned an IC50 in experiment [2] of 1400 nM.

With `C[C@@H]1C(=O)N(C(=O)C2CC2)[C@H]2CCN(C(=O)[C@@H]3CCCN3S(=O)(=O)c3ccc(Cl)cc3)[C@H]12`, inhibition in experiment [2] was half-maximal at 840 nM (IC50).

For the molecule `C[C@@H]1C(=O)N(C(=O)C2CC2)[C@H]2CCN(C(=O)[C@@H]3CCCN3C(=O)Nc3cccc(C(F)(F)F)c3)[C@H]12`, the IC50 in experiment [2] was 590 nM.

Consider `CCCOc1ccc(C(=O)N2CCC[C@H]2C(=O)N2CC[C@H]3[C@H]2[C@H](C)C(=O)N3C(=O)C2CC2)cc1`, for which, in experiment [2], the IC50 came to 540 nM. The same molecule registered a Ki in experiment [1] of 79 nM.

`CC(C)Oc1ccc(NC(=O)N2CCC[C@H]2C(=O)N2CC[C@H]3[C@H]2[C@H](C)C(=O)N3C(=O)C2CC2)cc1` registered an IC50 in experiment [2] of 180 nM. This molecule also returned an inhibitory constant (Ki) in experiment [1] of 18 nM.

Take `CC(C)c1ccc(NC(=O)N2CCC[C@H]2C(=O)N2CC[C@H]3[C@H]2[C@H](C)C(=O)N3c2nc3cc(S(=O)(=O)C(F)F)ccc3s2)cc1`: the 50% inhibitory concentration (IC50) in the experiment with Human betaherpesvirus 5 amounted to 2200 nM; in experiment [2] it was 210 nM. For the same molecule, in the experiment with Vero, the CCID50 is >500 µM.

As for `C[C@@H]1C(=O)N(C(=O)C2CC2)[C@H]2CCN(C(=O)[C@@H]3CCCN3C(=O)c3ccc(-c4ccccc4)cc3)[C@H]12`, in experiment [2], half-maximal inhibition (IC50) required 300 nM. This molecule also came in with a Ki in experiment [1] of 21 nM.

`C[C@@H]1C(=O)N(C(=O)C2CC2)[C@H]2CCN(C(=O)[C@@H]3CCCN3S(=O)(=O)Cc3ccccc3)[C@H]12` returned an IC50 in experiment [2] of 2100 nM.

On to `CCCOc1ccc(-c2ccc(S(=O)(=O)N3CCC[C@H]3C(=O)N3CC[C@H]4[C@H]3[C@H](C)C(=O)N4C(=O)C3CC3)cc2)cc1`, for which the inhibition constant (Ki) in experiment [1] was 33 nM.

In the case of `C[C@@H]1C(=O)N(C(=O)C2CC2)[C@H]2CCN(C(=O)[C@@H]3CCCN3S(=O)(=O)c3ccccc3)[C@H]12`, it took 1800 nM to reach half-maximal inhibition in experiment [2] (IC50).

Take `CC(C)c1ccc(NC(=O)N2CCC[C@H]2C(=O)N2CC[C@H]3[C@H]2[C@H](C)C(=O)N3c2nc3c(Cl)cccc3s2)cc1`: the values for the IC50 (with Human betaherpesvirus 5; in experiment [2]) were 17100 nM and 290 nM, respectively. For the same molecule, in the experiment on Vero, the CCID50 is >500 µM.

In turn, `CCCOc1ccc(NC(=O)N2CCC[C@H]2C(=O)N2CC[C@H]3[C@H]2[C@H](C)C(=O)N3C(=O)C2CC2)cc1` displayed a half-inhibitory concentration (IC50) in experiment [2] of 210 nM. Further, the Ki in experiment [1] amounted to 9 nM.

For `C[C@@H]1C(=O)N(C(=O)C2CC2)[C@H]2CCN(C(=O)[C@@H]3CCCN3C(=O)Nc3ccc(Cl)cc3)[C@H]12`, the midpoint of inhibition in experiment [2], the IC50, lay at 260 nM. In experiment [1], affinity was put at a Ki of 38 nM.

As for `C[C@@H]1C(=O)N(C(=O)C2CC2)[C@H]2CCN(C(=O)[C@@H]3CCCN3C(=O)Nc3ccc(-c4ccc(Cl)cc4)cc3)[C@H]12`, the IC50 in experiment [2] was 260 nM.
